Tests used:
Type in all cases: in vivo
Spodoptera littoralis = Spodoptera littoralis (Egyptian cotton leafworm) leaf disc spray test; settings: foliar, 72 h, 200 ppm sprayed on cotton leaf discs, 5 L1 larvae, mortality, feeding behavior, growth regulation 3 days after treatment
Description: Spodoptera Littoralis (Egyptian Cotton Leafworm): Cotton leaf discs were placed on agar in a 24-well microtiter plate and sprayed with test solutions at an application rate of 200 ppm. After drying, the leaf discs were infested with 5 L1 larvae. The samples were checked for mortality, feeding behavior, and growth regulation 3 days after treatment (DAT).

Plutella xylostella = Plutella xylostella (diamond back moth) artificial diet test; settings: 144 h, 200 ppm (concentration in well 18 ppm), L2 larvae, larval mortality and growth regulation after 6 days
Experimental: (§1) Plutella Xylostella (Diamond Back Moth): 24-well microtiter plate (MTP) with artificial diet was treated with test solutions at an application rate of 200 ppm (concentration in well 18 ppm) by pipetting. After drying, the MTP's were infested with L2 larvae (7-12 per well). After an incubation period of 6 days, samples were checked for larval mortality and growth regulation.

Heliothis virescens = Heliothis virescens (tobacco budworm) egg/artificial diet test; settings: 96 h, 200 ppm (concentration in well 18 ppm), eggs 0-24 h old on artificial diet, egg mortality, larval mortality, growth regulation after 4 days
Experimental: Heliothis Virescens (Tobacco Budworm): Eggs (0-24 h old) were placed in 24-well microtiter plate on artificial diet and treated with test solutions at an application rate of 200 ppm (concentration in well 18 ppm) by pipetting. After an incubation period of 4 days, samples were checked for egg mortality, larval mortality, and growth regulation.

Thrips tabaci = Thrips tabaci (onion thrips) leaf disc spray test; settings: foliar, 168 h, 200 ppm sprayed on sunflower leaf discs, population of mixed ages, mortality after 7 days
Experimental: Thrips Tabaci (Onion Thrips): Sunflower leaf discs were placed on agar in a 24-well microtiter plate and sprayed with test solutions at an application rate of 200 ppm. After drying, the leaf discs were infested with an […] population of mixed ages. After an incubation period of 7 days, samples were checked for mortality.

Diabrotica balteata = Diabrotica balteata (corn root worm) artificial diet test; settings: 120 h, 200 ppm (concentration in well 18 ppm), L2 larvae, larval mortality and growth regulation after 5 days
Experimental: as §1, with “Diabrotica Balteata (Corn Root Worm): A” for “Plutella Xylostella (Diamond Back Moth):”, “(6-10” for “(7-12”, “5” for “6”

Tetranychus urticae = Tetranychus urticae (two-spotted spider mite) leaf disc spray test; settings: foliar, 192 h, 200 ppm sprayed on bean leaf discs, mite populations of mixed ages, egg, larval and adult mortality 8 days later
Description: Tetranychus Urticae (Two-Spotted Spider Mite): Bean leaf discs on agar in 24-well microtiter plates were sprayed with test solutions at an application rate of 200 ppm. After drying, the leaf discs are infested with mite populations of mixed ages. 8 days later, discs are checked for egg mortality, larval mortality, and adult mortality.

Measured: pest or weed control at 200 ppm

N#Cc1ccc(C(=O)Nc2cc(C(=O)Nc3c(Br)cc(C(F)(C(F)(F)F)C(F)(F)C(F)(F)F)cc3Br)ccc2-n2cncn2)cc1 (stereo not shown) [D8, 3-(4-cyanobenzoylamino)-N-[2,6-dibromo-4-(1,2,2,3,3,3-hexafluoro-1-trifluoromethylpropyl)phenyl]-4-(1,2,4-triazol-1-yl)benzamide]
not listed: Tetranychus urticae
≥ 80%: all other assays above

Cc1cc(C(F)(C(F)(F)F)C(F)(F)F)cc(C)c1NC(=O)c1ccc(-n2cncn2)c(NC(=O)c2ccc(F)cc2)c1 [D1, 3-(4-Fluorobenzoylamino)-N-[2,6-dimethyl-4-(1,2,2,2-tetrafluoro-1-trifluoromethyl-ethyl)phenyl]-4-(1,2,4-triazol-1-yl)benzamide]
≥ 80%: Spodoptera littoralis | Plutella xylostella | Heliothis virescens | Diabrotica balteata

CCc1cc(C(F)(C(F)(F)F)C(F)(F)C(F)(F)F)cc(C)c1NC(=O)c1ccc(-n2cncn2)c(N)c1 (stereo not shown) [B3, 3-Amino-N-[2-ethyl-4-(1,2,2,3,3,3-hexafluoro-1-trifluoromethylpropyl)-6-methyl-phenyl]-4-(1,2,4-triazol-1-yl)benzamide]
not listed: Thrips tabaci
≥ 80%: all other assays above

CCc1cc(C(F)(C(F)(F)F)C(F)(F)C(F)(F)F)cc(C)c1NC(=O)c1ccc(-n2cncn2)c(NC(=O)c2ccc(C#N)cc2)c1 (stereo not shown) [D5, 3-(4-Cyanobenzoylamino)-N-[2-ethyl-4-(1,2,2,3,3,3-hexafluoro-1-trifluoromethyl-propyl)-6-methylphenyl]-4-(1,2,4-triazol-1-yl)benzamide]
≥ 80%: Spodoptera littoralis | Plutella xylostella | Heliothis virescens

CCc1cc(C(F)(C(F)(F)F)C(F)(F)C(F)(F)F)cc(C)c1NC(=O)c1ccc(-n2cncn2)c([N+](=O)[O-])c1 (stereo not shown) [A3, N-[2-Ethyl-4-(1,2,2,3,3,3-hexafluoro-1-trifluoromethylpropyl)-6-methylphenyl]-3-nitro-4-(1,2,4-triazol-1-yl)benzamide]
≥ 80%: all assays above

CCc1cc(C(F)(C(F)(F)F)C(F)(F)C(F)(F)F)cc(C)c1NC(=O)c1ccc(-n2cncn2)c(NC(=O)c2cccc([N+](=O)[O-])c2C)c1 (stereo not shown) [D3, 3-(2-Methyl-3-nitrobenzoylamino)-N-[2-ethyl-4-(1,2,2,3,3,3-hexafluoro-1-trifluoromethylpropyl)-6-methylphenyl]-4-(1,2,4-triazol-1-yl)benzamide]
≥ 80%: Spodoptera littoralis | Plutella xylostella | Heliothis virescens | Tetranychus urticae

O=C(Nc1cc(C(=O)Nc2c(Br)cc(C(F)(C(F)(F)F)C(F)(F)C(F)(F)F)cc2Br)ccc1-n1cncn1)c1ccc(F)cc1 (stereo not shown) [D7, 3-(4-Fluorobenzoylamino)-N-[2,6-dibromo-4-(1,2,2,3,3,3-hexafluoro-1-trifluoromethylpropyl)phenyl]-4-(1,2,4-triazol-1-yl)benzamide]
not listed: Tetranychus urticae
≥ 80%: all other assays above

CCc1cc(C(F)(C(F)(F)F)C(F)(F)F)cc(CC)c1NC(=O)c1ccc(-n2cncn2)c(NC(=O)c2ccc(F)cc2)c1 [D2, 3-(4-fluorobenzoylamino)-N-[2,6-diethyl-4-(1,2,2,2-tetrafluoro-1-trifluoromethylethyl)phenyl]-4-(1,2,4-triazol-1-yl)benzamide]
not listed: Tetranychus urticae
≥ 80%: all other assays above

Cc1c(C(=O)Nc2cc(C(=O)Nc3c(Br)cc(C(F)(C(F)(F)F)C(F)(F)C(F)(F)F)cc3Br)ccc2-n2cncn2)cccc1[N+](=O)[O-] (stereo not shown) [D10, 3-(2-Methyl-3-nitrobenzoylamino)-N-[2,6-dibromo-4-(1,2,2,3,3,3-hexafluoro-1-trifluoromethylpropyl)phenyl]-4-(1,2,4-triazol-1-yl)benzamide]
≥ 80%: all assays above

O=C(Nc1c(Br)cc(C(F)(C(F)(F)F)C(F)(F)C(F)(F)F)cc1Br)c1ccc(-n2cncn2)c(NC(=O)c2ccc(F)cc2Cl)c1 (stereo not shown) [D9, 3-(2-Chloro-4-fluorobenzoylamino)-N-[2,6-dibromo-4-(1,2,2,3,3,3-hexafluoro-1-trifluoromethylpropyl)phenyl]-4-(1,2,4-triazol-1-yl)benzamide]
≥ 80%: all assays above

CCc1cc(C(F)(C(F)(F)F)C(F)(F)F)cc(CC)c1NC(=O)c1ccc(-n2cncn2)c([N+](=O)[O-])c1 [A2, N-[2,6-Diethyl-4-(1,2,2,2-tetrafluoro-1-trifluoromethylethyl)phenyl]-3-nitro-4-(1,2,4-triazol-1-yl)benzamide]
≥ 80%: Spodoptera littoralis | Diabrotica balteata

CCc1cc(C(F)(C(F)(F)F)C(F)(F)C(F)(F)F)cc(C)c1NC(=O)c1ccc(-n2cncn2)c(NC(=O)c2ccc(F)cc2Cl)c1 (stereo not shown) [D4, 3-(2-Chloro-4-fluorobenzoylamino)-N-[2-ethyl-4-(1,2,2,3,3,3-hexafluoro-1-trifluoromethylpropyl)-6-methylphenyl]-4-(1,2,4-triazol-1-yl)benzamide]
≥ 80%: all assays above

Cc1cc(C(F)(C(F)(F)F)C(F)(F)F)cc(C)c1NC(=O)c1ccc(-n2cncn2)c([N+](=O)[O-])c1 [A1, N-[2,6-Dimethyl-4-(1,2,2,2-tetrafluoro-1-trifluoromethylethyl)phenyl]-3-nitro-4-(1,2,4-triazol-1-yl)benzamide]
not listed: Thrips tabaci
≥ 80%: all other assays above

Cc1cc(C(F)(C(F)(F)F)C(F)(F)F)cc(C)c1NC(=O)c1ccc(-n2cncn2)c(N)c1 [B1, 3-Amino-N-[2,6-dimethyl-4-(1,2,2,2-tetrafluoro-1-trifluoromethylethyl)phenyl]-4-(1,2,4-triazol-1-yl)benzamide]
≥ 80%: Heliothis virescens | Tetranychus urticae

CCc1cc(C(F)(C(F)(F)F)C(F)(F)F)cc(CC)c1NC(=O)c1ccc(-n2cncn2)c(N)c1 [B2, 3-amino-N-[2,6-diethyl-4-(1,2,2,2-tetrafluoro-1-trifluoromethylethyl)phenyl]-4-(1,2,4-triazol-1-yl)benzamide]
not listed: Thrips tabaci
≥ 80%: all other assays above

Nc1cc(C(=O)Nc2c(Br)cc(C(F)(C(F)(F)F)C(F)(F)C(F)(F)F)cc2Br)ccc1-n1cncn1 (stereo not shown) [B4, 3-amino-N-[2,6-dibromo-4-(1,2,2,3,3,3-hexafluoro-1-trifluoromethylpropyl)-phenyl]-4-(1,2,4-triazol-1-yl)benzamide]
≥ 80%: Spodoptera littoralis | Plutella xylostella | Heliothis virescens | Tetranychus urticae

O=C(Nc1c(Br)cc(C(F)(C(F)(F)F)C(F)(F)C(F)(F)F)cc1Br)c1ccc(-n2cncn2)c([N+](=O)[O-])c1 (stereo not shown) [A4, N-[2,6-dibromo-4-(1,2,2,3,3,3-hexafluoro-1-trifluoromethylpropyl)phenyl]-3-nitro-4-(1,2,4-triazol-1-yl)benzamide]
≥ 80%: all assays above

From patent publication US8455399B2, “N-(4-perfluoroalkyl-phenyl)-4-triazolyl-benzamides as insecticides” (Syngenta Crop Protection LLC, priority 2009, dated 2013)
